Assay results taken from US20250090516A1, “DRUG FOR TREATING AF[…] NOVEL CORONAVIRUS INFECTION” (THE JIKEI UNIVERSITY, priority 2022, published 2025).

Key:
Assay type in all cases: in vivo, C57BL/6 mice
[1] = test system: gene expression of IL-1β and IL-6 in the brains of S1 mice; test: RT-qPCR of inflammatory cytokine genes in brains of S1 mice after intracerebroventricular PNU282987; settings: PNU282987 400 nmol/mouse intracerebroventricularly on 7th day; brains collected one hour later; FIG. 14
[2] = test system: gene expression of zinc finger protein 36 (Zfp36) in the brains of S1 mice; test: RT-qPCR of Zfp36 in brains of S1 mice after PNU282987; settings: PNU282987 400 nmol/mouse intracerebroventricularly; cDNA of Example 10; FIG. 15
Method: Therefore, to the S1 mice and the control mice, on the 7th day after nasal administration of S1/Adv or vector/Adv, PNU282987, which is an agonist specific to the a7 nicotinic acetylcholine receptor, was administered intracerebroventricularly at a dose of 400 nmol/mouse, and the therapeutic effect on brain inflammation in the S1 mice was examined.
One hour after the intracerebroventricular administration of PNU282987, the brains excluding the olfactory bulbs were collected, and RNA was purified with the RNeasy Mini Kit (QIAGEN). The purified RNA was used as a template to synthesize cDNA with the PrimeScript RT reagent Kit (Takara-Bio Inc.). Using the synthesized cDNA, the gene expression of interleukin-1β (IL-1β) and interleukin-6 (IL-6) was analyzed by RT-qPCR. The measurement results of 18S rRNA were used for normalization.
To elucidate the molecular mechanism of the therapeutic effect of PNU282987 on brain inflammation in Example 10, the impact of S1 and […] on the gene expression level of zinc finger protein 36 (Zfp36), which is a host protein with anti-inflammatory effects, was examined. Specifically, using the synthesized cDNA in Example 10, the gene expression of Zfp36 was analyzed by RT-qPCR. The measurement results of 18S rRNA were used for normalization.

[3] = test system: S1 mice (COVID-19 sequela model animals); test: Tail suspension test (depressive disorder-like behavior) after donepezil; settings: donepezil 4.0 mg/kg/day via drinking water; 6th day after nasal S1/Adv; 10 minutes suspension; without donepezil, S1 mice significantly increased; FIG. 12
[4] = test system: S1 mice (COVID-19 sequela model animals); test: 10% weight-loaded forced swimming test (fatigue behavioral test) after donepezil; settings: donepezil 4.0 mg/kg/day via drinking water; 6th day after nasal S1/Adv; without donepezil, S1 mice significantly shorter; FIG. 11

SMILES	increased expression level of IL-1β gene in the brain of S1 mice [1]	increased expression level of IL-6 gene in the brain of S1 mice [1]	decrease in ZFP36 gene expression in S1 mice [2]	immobility time in the tail suspension test, S1 mice vs control mice [3]	swimming time, S1 mice vs control mice [4]
O=C(N[C@H]1CN2CCC1CC2)c1ccc(Cl)cc1 [PNU282987]	suppressed	suppressed	improved	–	–
COc1cc2c(cc1OC)C(=O)C(CC1CCN(Cc3ccccc3)CC1)C2.Cl (centres unmarked) [donepezil, 2-[(1-benzyl-4-piperidyl)methyl]-5,6-dimethoxyindan-1-one hydrochloride]	–	–	–	significantly decreased	no difference was observed
